In patent US5276048A, “4-(1H-pyrrol-1-yl)imidazoles with angiotensin II antagonist activity” (Warner-Lambert Company, priority 1992, dated 1994):

System: renal hypertensive rats (2-kidney, 1-clip Goldblatt model)
Test: blood pressure lowering in renal hypertensive rats (2-kidney, 1-clip Goldblatt model)
Format: in vivo, rat
Settings: single oral dose of 30 mg/kg
Experimental: Finally, the compounds of Formula I were tested in vivo for blood pressure lowering effects in renal hypertensive rats (2-kidney, 1-clip Goldblatt model) according to the method described by S. Sen, et al, in Hypertension 1:427-434 (1979) and in Clin. Soc. 57:53-6, 1979.
Illustrative of the in vivo antihypertensive activity for compounds of Formula I is the data for 4-[2-(1-oxo-2,2,2-trifluoroethyl)-1H-pyrrol-1-yl]-2-propyl-1-[(2'-(1H-tetrazol-5-yl)biphen-4-yl)methyl]-1H-imidazole-5-carboxylic acid (Example 14). This compound lowers blood pressure by ≥50 mm Hg and is efficacious for more than 24 hours with a single oral dose of 30 mg/kg in the above rodent model.

## CCCc1nc(-n2cccc2C(=O)C(F)(F)F)c(C(=O)O)n1Cc1ccc(-c2ccccc2-c2nnn[nH]2)cc1 [Example 14, 4-[2-(1-Oxo-2,2,2-trifluoroethyl)-1H-pyrrol-1-yl]-2-propyl-1-[(2'-(1H-tetrazol-5-yl)biphen-4-yl)methyl]-1H-imidazole-5-carboxylic acid]
  duration of efficacy: more than 24 hours
  lowers blood pressure: ≥ 50 mm Hg
